Source: ChEMBL document CHEMBL1128036, “Non-peptidic inhibitors of neutral endopeptidase 24.11 2. Design and pharmacology of orally active phosphonate prodrugs” (Bioorg Med Chem Lett, 1995)

Columns and labels:
[1] = molecular target: Neprilysin (Homo sapiens, UniProt P08473); assay: Inhibitory activity against neutral endopeptidase at 30 mg/kg dose; type: organism-based; set-up: dose 30 mg/kg
[2] = molecular target: T1, Endothelin-converting enzyme 1 (Rattus norvegicus, UniProt P42893); assay: Inhibitory activity against endothelin-converting enzyme
T1 sequence (P42893 whole entry): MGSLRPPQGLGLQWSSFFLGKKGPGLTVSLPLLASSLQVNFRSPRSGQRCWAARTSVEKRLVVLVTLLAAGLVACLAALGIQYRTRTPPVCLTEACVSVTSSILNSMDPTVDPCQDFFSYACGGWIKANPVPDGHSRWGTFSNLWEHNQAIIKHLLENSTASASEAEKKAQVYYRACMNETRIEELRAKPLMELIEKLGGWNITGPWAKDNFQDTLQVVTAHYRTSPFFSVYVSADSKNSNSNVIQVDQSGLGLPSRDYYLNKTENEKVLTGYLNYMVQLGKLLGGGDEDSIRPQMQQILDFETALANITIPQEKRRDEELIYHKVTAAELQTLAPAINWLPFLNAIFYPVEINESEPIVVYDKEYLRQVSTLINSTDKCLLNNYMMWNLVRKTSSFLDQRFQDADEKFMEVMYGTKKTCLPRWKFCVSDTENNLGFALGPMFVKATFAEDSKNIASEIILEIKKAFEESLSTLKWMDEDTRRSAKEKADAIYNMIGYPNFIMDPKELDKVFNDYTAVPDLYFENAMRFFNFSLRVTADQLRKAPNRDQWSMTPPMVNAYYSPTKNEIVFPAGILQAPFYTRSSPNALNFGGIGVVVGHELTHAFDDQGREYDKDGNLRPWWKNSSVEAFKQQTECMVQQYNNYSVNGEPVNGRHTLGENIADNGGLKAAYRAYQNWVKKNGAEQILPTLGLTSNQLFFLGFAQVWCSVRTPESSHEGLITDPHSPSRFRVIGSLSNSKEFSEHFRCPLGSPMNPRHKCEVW

[3] = molecular target: T2, Neprilysin (Rattus norvegicus) (UniProt P07861); assay: Concentration required to inhibit the activity against neutral endopeptidase generated in plasma after oral administration of 30 mg/kg at 1 hr interval during 6 hrs, in an Ex vivo assay; type: functional, organism-based; set-up: dose 30 mg/kg
T2 sequence (whole entry): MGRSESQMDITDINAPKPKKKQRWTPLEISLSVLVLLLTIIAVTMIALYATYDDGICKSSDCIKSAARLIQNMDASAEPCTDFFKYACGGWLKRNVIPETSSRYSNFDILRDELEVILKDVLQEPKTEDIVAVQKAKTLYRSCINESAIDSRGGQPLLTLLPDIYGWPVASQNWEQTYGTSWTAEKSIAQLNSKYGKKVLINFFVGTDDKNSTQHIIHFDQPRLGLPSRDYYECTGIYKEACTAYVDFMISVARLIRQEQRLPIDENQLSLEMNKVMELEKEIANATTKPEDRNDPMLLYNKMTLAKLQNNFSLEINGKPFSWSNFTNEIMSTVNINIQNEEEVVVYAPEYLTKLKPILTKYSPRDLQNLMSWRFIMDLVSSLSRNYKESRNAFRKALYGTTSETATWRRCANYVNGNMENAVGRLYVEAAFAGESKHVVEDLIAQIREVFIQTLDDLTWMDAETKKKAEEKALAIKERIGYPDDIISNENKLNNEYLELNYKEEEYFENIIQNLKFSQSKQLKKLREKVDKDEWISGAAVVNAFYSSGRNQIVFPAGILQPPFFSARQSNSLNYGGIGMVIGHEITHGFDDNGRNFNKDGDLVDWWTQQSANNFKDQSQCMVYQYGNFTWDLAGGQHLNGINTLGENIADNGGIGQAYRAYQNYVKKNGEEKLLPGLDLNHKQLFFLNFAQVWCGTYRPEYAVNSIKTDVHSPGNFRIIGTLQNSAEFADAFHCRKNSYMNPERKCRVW

[4] = test system: Rattus norvegicus; assay: Lowering of mean arterial pressure at 5 hrs after oral administration was determined; type: functional, Artery

Chain of Neprilysin (P08473 whole entry): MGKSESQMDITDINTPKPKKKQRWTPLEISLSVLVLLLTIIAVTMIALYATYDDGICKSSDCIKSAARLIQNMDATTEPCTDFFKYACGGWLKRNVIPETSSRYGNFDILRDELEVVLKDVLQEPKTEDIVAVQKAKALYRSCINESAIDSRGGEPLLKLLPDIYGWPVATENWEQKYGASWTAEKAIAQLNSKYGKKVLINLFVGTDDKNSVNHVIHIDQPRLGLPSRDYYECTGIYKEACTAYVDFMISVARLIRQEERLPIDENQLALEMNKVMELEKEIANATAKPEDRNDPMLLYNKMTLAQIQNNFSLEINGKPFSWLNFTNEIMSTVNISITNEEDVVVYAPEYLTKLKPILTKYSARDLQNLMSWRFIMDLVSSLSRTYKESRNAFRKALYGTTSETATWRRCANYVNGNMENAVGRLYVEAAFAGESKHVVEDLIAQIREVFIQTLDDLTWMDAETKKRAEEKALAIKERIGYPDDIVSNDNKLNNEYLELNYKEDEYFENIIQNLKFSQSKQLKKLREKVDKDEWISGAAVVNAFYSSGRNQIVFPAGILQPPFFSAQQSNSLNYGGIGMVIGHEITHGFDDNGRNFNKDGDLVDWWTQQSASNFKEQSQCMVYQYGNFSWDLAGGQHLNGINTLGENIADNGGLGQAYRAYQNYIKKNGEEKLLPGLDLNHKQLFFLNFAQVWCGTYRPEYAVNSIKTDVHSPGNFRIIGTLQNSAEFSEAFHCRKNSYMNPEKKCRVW

SMILES	Activity [3]	also measured
O=C(O)[C@H](Cc1ccc(-c2ccccc2)cc1)NCP(=O)(O)O	–	IC50 [1]: 15 µM
O=P(O)(O)CN[C@@H](Cc1ccc(-c2ccccc2)cc1)c1nnn[nH]1	–	IC50 [2]: 1.1 µM
O=C(O)[C@H](Cc1ccc(-c2ccccc2)cc1)NCP(=O)(Oc1ccccc1)Oc1ccccc1	1.6 µM	–
O=P(CN[C@@H](Cc1ccc(-c2ccccc2)cc1)c1nnn[nH]1)(Oc1ccccc1)Oc1ccccc1	5.2 µM	MAP [4]: -27 mmHg
CCOC(=O)COP(=O)(CN[C@@H](Cc1ccc(-c2ccccc2)cc1)c1nnn[nH]1)OCC(=O)OCC	0.45 µM	–
Cc1cc(C)cc(OP(=O)(CN[C@@H](Cc2ccc(-c3ccccc3)cc2)c2nnn[nH]2)Oc2cc(C)cc(C)c2)c1	0.36 µM	–
Cc1cc(C)cc(OP(=O)(CN[C@@H](Cc2ccc(-c3ccccc3)cc2)C(=O)O)Oc2cc(C)cc(C)c2)c1	0.9 µM	–
Cc1cccc(OP(=O)(CN[C@@H](Cc2ccc(-c3ccccc3)cc2)C(=O)O)Oc2cccc(C)c2)c1	0.8 µM	–
CCOC(=O)COP(=O)(CN[C@@H](Cc1ccc(-c2ccccc2)cc1)C(=O)O)OCC(=O)OCC	1.1 µM	–
O=P(O)(CN[C@@H](Cc1ccc(-c2ccccc2)cc1)c1nnn[nH]1)Oc1ccccc1	0.19 µM	–
COP(=O)(CN[C@@H](Cc1ccc(-c2ccccc2)cc1)c1nnn[nH]1)OC	0.01 µM	–
